Measurements published in patent publication US12403114B2, “Cannabinoid acid ester compositions and uses thereof” (EPM (IP), INC., priority 2019, dated 2025).
“Also recorded” adds a separate entry of the source.

Key:
[1] = tested on: partial meniscectomy/ACL transection rat model of surgical induced osteoarthritis and pain induced incapacitance; test: Weight bearing (incapacitance tester) in rat partial meniscectomy/ACL transection model, Example 5; format: in vivo
Description: Rats were allowed to acclimatize for 1 week, followed by assessment of their weight bearing preference using an incapacitance meter. Unilateral medical meniscectomy and anterior cruciate ligament ligation (MMX/ACLT) surgery was performed on the right knee of a subject rat. Weight bearing preference was tested before and after surgery. After 2 weeks, treatments with both intra-articular (1) and. intra-peritoneal (6) administrations of EPM-301 began in the EPM-301 group. Weight bearing preference was then assessed 4 and 7 days after the start of therapy.
Wistar Rats (HsdHan female rats 225-249 grams) were acquired from Envigo. The rats were evaluated using an incapacitance tester. They were tested pre-operation, one-week post-operation, two weeks post-operation, prior to injection, 4 and 7 days post injections.
EPM-301 was dissolved in a solution mixture of 1:1:18 EtOH:cremophor:seline to a final concentration of 3.5 mg/mL.
Intra-articular (i.a.) injection was carried out with 100 uL and intra-peritoneal (i.p.) injections were carried out with 150 uL. All were injected i.a. in the first day. EPM-301 was injected via i.p. administration on the first day, and for 5 additional days everyday via i.p. administration.
Student's t-test was performed at the last follow-up time to determine effect of the therapy as primary endpoint. The level of significance was 0.05 alpha. ANOVA was used to compare all time points, a post-hob analysis with the Scheffe all comparisons method was performed. Calculations were performed using the Analyze-it Excel add-on function.
The percentage weight bearing was calculated as the amount of weight born (in grams) on the right hind limb divided by the amount of weight born on the left hind limb. The ratio was expressed as percentage weight bearing. There were 6 animals in the EPM-301 treated group and 4 animals in the control group.

LLCPK1 cells = test: Cellular lipid accumulation test in renal proximal tubule cells; format: cell-based; settings: 3.125-25 μM; cells exposed to a mixture of oleate and palmitate, 24 hr (FIG. 31)
Description: (§1) To test whether CBDA-ME has the ability to reduce lipid accumulation in renal proximal tubule cells, we have utilized an in vitro model of fat accumulation in LLCPK1 cells. Briefly, LLCPK1 cells were maintained at 37° C. in 5% CO2 in DMEM medium supplemented with 10% FCS, 2 mM 1-glutamine, 1 mM sodium pyruvate, 100 U/mL penicillin and […] streptomycin. Free fatty acids (2:1, molar ratio, oleic and palmitic acids) were mixed with bovine serum albumin (BSA). Cells were incubated with fatty acid-BSA complex in FCS-free culture medium at 0.3 mM final concentration of fatty acid and 1% of BSA. Control cell cultures were incubated with medium containing the vehicle. Compounds were tested in a range of concentrations (as detailed in the results section) in the presence/absence of fatty acids. After 24 hr of incubation with the compounds, the cells were washed, incubated with 1 μg/mL mixture of Nile-Red/Hoechst solution for 15 mins at 37° C. protected from light. Fluorescence was measured by the Cytation-3 plate reader at ex:488 nm/em:550 for Nile-Red and Hoechst, respectively. Results were normalized to total protein levels of each well, and presented as a change in the accumulation of lipids in comparison with Vehicle-treated group.

[2] = tested on: weight gain in rats with an adipogenic diet; test: Rat model of diet induced obesity (Teklad TD95217 adipogenic diet), weight gain; format: in vivo; settings: 150 uL of 3.5 mg/ml i.p., each animal its own control (FIG. 33)
Description: The study was designed as a N-of-1 study, where each animal served as its own control. The advantage of this model is the elimination of the need for a control group and reduction of […] variation. The study was performed in two phases: a short-term study with one week exposure to EPM-301 and a long-term study with 8 weeks exposure to EPM-301 (injected daily). In the long-term study, a control group was used including animals fed the adipogenic diet.
EPM-301 was dissolved in 1:1:18 EtOH:cremophor:seline solution to final concentration of 3.5 mg/ml.
In the short-term experiment, all rats were injected i.p. 150 uL in the first day, and after a 3-day break were then injected i.p. every day for 4 days. In the long-term experiment i.p. injections of 150 uL were carried out daily for 8 weeks. Weight was measured at weeks 0, 1, 3, and 9 after injections.
The rats were weighed on a digital weight weekly in the short-term study for 3 weeks. The rats were weighed on weeks 0, 1, 3, and 9 in the long-term study.
Rats were allowed to acclimatize for 1 week, and then their weights were assessed using a digital weighing machine. Animals are fed an adipogenic diet for two weeks before starting injections.
The weights of the animals were compared at each time point and the change over time calculated. ANOVA was used to determine whether there was a significant change. […]

[3] = tested on: Human hepatoma HepG2 cells; test: Fat accumulation in hepatocytes (Nile-Red); format: cell-based; settings: 0.3 mM oleic:palmitic acids, 24 hr; EPM-301 effect at high (50 and 10 μM) and low (0.025 and 0.001 μM) concentrations, bell-shaped (FIG. 37, 38)
Description: as §1, with “An in vitro model of fat accumulation in hepatocytes was used to” for “To”, “compounds EPM-301 and EPM-302 have” for “CBDA-ME has”, “hepatocytes Human hepatoma HepG2” for “renal proximal tubule cells, we have utilized an in vitro model of fat accumulation in LLCPK1 cells. Briefly, LLCPK1”, “concentrations” for “concentrations (as detailed”, “presence” for “results section) in the presence/absence”, “nm/em:550 nm and ex:350 nm/em:461 nm” for “nm/em:550”
[…] EPM-301 at 50 μM was used as positive control.
Values are expressed as mean±SEM. […]

C=C(C)[C@@H]1CCC(C)=CC1c1c(O)cc(CCCCC)c(C(=O)OC)c1O (stereo partly drawn) [EPM-301, cannabidiolic acid methyl ester]
Rt limb weight bearing ([1]; following injection, 3.5 mg/mL, 100 uL i.a. once plus 150 uL i.p. on 6 days, control group 59.0%): 106.7% | weight bearing, average value ([1]; immediately prior to injection, two weeks following model induction (baseline before treatment)): 42.25% | Rt/Lt weight bearing, average value ([1]; prior to operation (baseline of the group, before treatment)): 139.6% | fat accumulation in kidney cells (lipotoxicity) (LLCPK1 cells): prevent | weight gain, short-term study [2]: halting | amount of fat accumulation in hepatocytes [3]: significantly reduce; also recorded: ineffective
